Test results from ChEMBL document CHEMBL2390900, “The use of virtual screening and differential scanning fluorimetry for the rapid identification of fragments active against MEK1” (Bioorg Med Chem Lett, 2013).

How the values were obtained:
[1] = target: T1, Dual specificity mitogen-activated protein kinase kinase 1 (Homo sapiens, UniProt Q02750)
Description: Binding affinity to MEK1 (unknown origin) assessed as fluorescence intensity every 0.2 degC at 500 uM at 20 degC to 90 degC by differential screening fluorimetry analysis

[2] = target: T1, Dual specificity mitogen-activated protein kinase kinase 1; test: Inhibition of MEK1 (unknown origin) using ATP and ERK2 K54R as substrate after 60 to 80 mins by HTRF assay
[3] = target: T1, Dual specificity mitogen-activated protein kinase kinase 1; remark: listed apart in the source

T1 sequence (Q02750 whole entry): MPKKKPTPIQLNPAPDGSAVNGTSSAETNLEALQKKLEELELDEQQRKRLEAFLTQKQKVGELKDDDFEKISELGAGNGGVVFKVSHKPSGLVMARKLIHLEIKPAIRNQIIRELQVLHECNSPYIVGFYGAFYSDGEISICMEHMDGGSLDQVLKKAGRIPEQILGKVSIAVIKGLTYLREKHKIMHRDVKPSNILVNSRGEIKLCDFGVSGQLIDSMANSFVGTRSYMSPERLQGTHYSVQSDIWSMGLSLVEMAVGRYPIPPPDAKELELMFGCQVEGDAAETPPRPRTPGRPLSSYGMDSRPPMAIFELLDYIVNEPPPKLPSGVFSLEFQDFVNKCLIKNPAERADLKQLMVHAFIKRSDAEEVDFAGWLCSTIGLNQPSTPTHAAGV

| SMILES | ΔTm [1] [°C] | IC50 [2] [µM] | RU [3] |
| --- | --- | --- | --- |
| CC1(O)CCN2C(=O)CCc3cccc1c32 (centres undefined) | 3.8 | 18.1 | – |
| O=c1[nH]ccc2cc(O[C@@H]3CCCNC3)c(Cl)cc12 | 0.2 | – | 0.3 |
